Laboratory results: patent publication US20250009885A1, “INJECTABLE PHARMACEUTICAL FORMULATIONS OF LEFAMULIN” (NABRIVA THERAPEUTICS GMBH, priority 2015, published 2025)

What was measured:
Assay type in all cases: physicochemical
[1] = Solubility of BC-3781 acetate in various media
Text: The solubility of BC-3781 acetate in various media is as follows: […]

pKa value measured = experiment: pKa value measured
[2] = Stability at physiological pH; details: pH 6.8 to 7.4
Text: Reported local tolerability issues are often linked to insufficient solubity of the compound at physiological pH which, however, is not the case for BC-3781.

Row | SMILES | solubility ([1]; aqueous buffer, pH 7.4 (300 mM phosphate buffer)) [mg/mL] | solubility ([1]; water) [mg/mL] | pKa (pKa value measured) | Stability at physiological pH [2]
1 | C=C[C@]1(C)C[C@@H](OC(=O)CS[C@@H]2CC[C@@H](N)C[C@H]2O)[C@]2(C)[C@H](C)CC[C@]3(CCC(=O)[C@H]32)[C@@H](C)[C@@H]1O [BC-3781 acetate, 14-O-{[(1R, 2R, 4R)-4-amino-2-hydroxy-cyclohexylsulfanyl]-acetyl}-mutilin] | ≥ 100 | ≥ 100 |  | 
2 | C=C[C@]1(C)C[C@@H](OC(=O)CS[C@@H]2CC[C@@H](N)C[C@H]2O)[C@]2(C)[C@H](C)CC[C@]3(CCC(=O)[C@H]32)[C@@H](C)[C@@H]1O [BC-3781, 14-O-{[(1R, 2R, 4R)-4-amino-2-hydroxy-cyclohexylsulfanyl]-acetyl}-mutilin] |  |  | 9.41 | excellent stability
